For one series, the target named is PHD1 (Homo sapiens (Human), UniProt Q96KS0). Put plainly: PHD enzyme assay (Eu-VBC TR-fluorescence). The class given is biochemical. The protocol:
(§1) VHL/elongin B/elongin C were constructed, expressed and purified, and VHL was labeled. PHD1, PHD2 and PHD3 were constructed, expressed and purified. VBC protein was labeled with DELFIA Eu-Labeling Kit. A NeutrAvidin 96-well plate was blocked after the addition of 200 μL Blocker Casein to each well, followed by incubation for 30 min. Each well was washed 3 times by adding 200 μL of washing buffer each time. A 200 nM HIF-1a 556-574 solution was prepared with washing buffer, and 100 μL of the solution was added to each well, followed by incubation for 60 min. Each well was washed 3 times by adding 200 μL of washing buffer each time. A 1 mM Biotin solution was prepared with Blocker Casein, and 100 μL of the solution was added to each well, followed by incubation for 30 min. Each well was washed 3 times by adding 200 μL of washing buffer each time. A 20× compound solution was prepared with PHD reaction buffer, with the final concentration of DMSO being 1%. PHD solutions were prepared with PHD reaction buffer, and the concentrations of PHD1, 2, and 3 solutions were 10 ng/μL, 5 ng/μL, and 15 ng/μL, respectively. 95 μL of the PHD solution was added to each compound well, followed by the addition of 5 μL of the compound solution, 95 μL of the PHD solution was added to each full active well, followed by the addition of 5 μL of the PHD reaction buffer; and 100 μL of the PHD reaction buffer was added to each blank well. After mixing homogeneously, the wells were incubated for 60 min. Each well was washed 3 times by adding 200 μL of washing buffer each time A 1 ng/μL Eu-VBC solution was prepared with Eu-VBC binding buffer, and 100 μL of the solution was added to each well, followed by incubation for 60 min. Each well was washed 6 times by adding 200 μL DELFIA Wash Concentrate each time. 100 μL DELFIA Enhancement Solution was added to each well. A microplate reader was used to read TR-Fluorescence at Ex340 and Em615. The flurescence of the sample wells was recorded as FLUsample, the flurescence of the full active wells was recorded as FLU100%, and the flurescence of the blank well was recorded as FLU0%.

In another series the target is PHD3 (Homo sapiens (Human), UniProt Q9H6Z9). The experiment in a line: PHD enzyme assay (Eu-VBC TR-fluorescence). It counts as biochemical. The protocol:
as §1

The target of the next series is PHD2 (Homo sapiens (Human), UniProt Q9GZT9). The experiment in a line: PHD enzyme assay (Eu-VBC TR-fluorescence). It counts as biochemical. The protocol: as §1, with “A 200 nM HIF-1a 556-574 solution was prepared with washing buffer, and 100 μL of the solution was added to each well, followed by incubation for 60 min.” left out, “PHD solutions were prepared with PHD reaction buffer, and the concentrations of PHD1, 2, and 3 solutions were 10 ng/μL, 5 ng/μL, and 15 ng/μL, respectively. 95 μL of the PHD solution was added to each compound well, followed by the addition of 5 μL of the compound solution, 95 μL of the PHD solution was added to each full active well, followed by the addition of 5 μL of the PHD reaction buffer; and 100 μL of the PHD reaction buffer was added to each blank well.” left out, “A microplate reader was used to read TR-Fluorescence at Ex340 and Em615.” left out
PHD2, sequence (Q9GZT9 whole entry): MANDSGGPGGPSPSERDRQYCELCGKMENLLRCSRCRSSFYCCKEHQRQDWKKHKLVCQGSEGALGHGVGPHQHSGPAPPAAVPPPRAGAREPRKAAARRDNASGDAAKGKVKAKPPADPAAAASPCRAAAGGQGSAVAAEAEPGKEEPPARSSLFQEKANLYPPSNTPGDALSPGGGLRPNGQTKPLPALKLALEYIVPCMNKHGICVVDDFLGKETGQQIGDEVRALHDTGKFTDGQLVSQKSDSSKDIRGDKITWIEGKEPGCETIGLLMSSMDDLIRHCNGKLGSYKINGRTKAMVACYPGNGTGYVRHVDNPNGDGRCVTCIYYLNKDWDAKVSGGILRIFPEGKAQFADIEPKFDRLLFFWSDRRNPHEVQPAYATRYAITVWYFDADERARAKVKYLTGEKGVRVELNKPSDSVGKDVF

The subject of another series is HIF-2α. The experiment in a line: Expression of HIF-2α protein in Hep3B cells (western blot, grayscale analysis). The class given is cell-based, Human. The procedure: (§2) A test compound was dissolved in dimethyl sulfoxide into a 100 mM stock solution, and then was diluted with 0.5% FBS-containing DMEM medium into 30 μM, 10 μM and 3 μM for later use. Human liver cancer cells Hep3B were seeded in a six-well plate at a density of 2.25*10^5 cells/well, 2 mL per well. After cultivation overnight, the cells were treated with compounds at different concentrations for 2 h. The proteins were extracted for western blot and further grayscale analysis.
(In general: A western blot detects proteins with antibodies after separation by electrophoresis.)

In another series the test system is reticulocytes. Put plainly: Effect on reticulocytes of normal mice. The class given is in vivo, Balb/c mice. Details: Reticulocytes (RETIC), average: unit not given here. To be noted: 10 mg/kg p.o., once; 72 h after administration. The protocol: 72 Balb/c mice, male, were divided into 12 groups, 6 mice in each treatment group. In the positive drug control groups: the mice in the FG-4592 treatment groups were orally administered once, at two doses of 10 mg/kg and 50 mg/kg, and the mice in the rhEPO treatment group was intraperitoneaily injected once, at a dose of 100 IU/kg. The compounds of the present disclosure were all orally administered once at a dose of 10 mg/kg. 72 h after the administration, blood was collected from the orbit of all animals, and subjected to EDTA-K2 anticoagulation. Then reticulocytes (RETIC) were counted with an automatic blood cell analyzer.

The next series relates to HIF-1α. Put plainly: Expression of HIF-1α protein in Hep3B cells (western blot, grayscale analysis). It counts as cell-based, Human. The procedure: as §2
Series [1] concerns Erythropoietin in liver cancer cells Hep3B. Put plainly: Expression of erythropoietin in liver cancer cells Hep3B in vitro (EPO ELISA of supernatant). It counts as cell-based, Human. The protocol:
The cells were adherent cultured overnight, and after discarding the used medium. In the 96-well culture plate, the cells were washed once with 0.5% FBS-containing DMEM medium. […] 0.5% FBS-containing DMEM medium was used instead of the drug solution as the control well. After incubation in a 37° C., 5% CO2 incubator for 24 h, the supernatant was taken as a sample and frozen at −20° C. for later use. An Elisa kit (abeam) was used to detect EPO in the cell supernatant. A microplate reader was used to detect the OD value at 450/620 nm.

Another series concerns the target hERG channels (Homo sapiens (Human), UniProt Q12809). The experiment in a line: cell-based. The class given is cell-based. The protocol:
Whole-cell patch clamp technique was used to record hERG current. A cell suspension was added to a 35 mm Petri dish, and the dish was then placed on an inverted microscope stage. After the adherence of cells, they were perfused with extracellular fluid at a flow rate of 1-2 mL/min. A glass microelectrode was drawn by a microelectrode puller in two steps, and the pipette tip resistance was between 2-5 MΩ. After establishing the whole cell recording, the clamp potential was held at −80 mV, followed by depolarization to +60 mV when given voltage stimulation and then repolarization to −50 mV to elicit hERG tail current. All recordings were performed after the current was stable. Extracellular perfusion administration started from a low concentration, staying for 5-10 min at each concentration until the current was stable, and then cells were further perfused with the next concentration.

For the next series, the target named is CYP2C19 (Homo sapiens (Human), UniProt P33261). Put plainly: CYP enzyme inhibition assay. It counts as in vitro ADME. The source says: (§3) The compounds of the present disclosure were subjected to the CYP450 enzyme inhibition assay.
CYP2C19, sequence (P33261 whole entry): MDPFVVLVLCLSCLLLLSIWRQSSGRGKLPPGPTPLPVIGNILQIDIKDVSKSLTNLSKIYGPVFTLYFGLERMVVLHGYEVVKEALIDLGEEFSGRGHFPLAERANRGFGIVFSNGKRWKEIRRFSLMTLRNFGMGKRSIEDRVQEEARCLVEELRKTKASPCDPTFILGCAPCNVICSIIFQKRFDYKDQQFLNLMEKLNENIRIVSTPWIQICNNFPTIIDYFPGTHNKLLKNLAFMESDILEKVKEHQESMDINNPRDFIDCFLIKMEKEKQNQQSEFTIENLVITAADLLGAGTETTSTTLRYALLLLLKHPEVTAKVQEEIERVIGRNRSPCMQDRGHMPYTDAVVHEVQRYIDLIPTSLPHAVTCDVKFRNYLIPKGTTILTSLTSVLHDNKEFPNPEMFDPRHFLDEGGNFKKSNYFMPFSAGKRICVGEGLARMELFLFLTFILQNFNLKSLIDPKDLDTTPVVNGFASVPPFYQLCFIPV
Another series concerns the target CYP2C9 (Homo sapiens (Human), UniProt P11712). Put plainly: CYP enzyme inhibition assay. The class given is in vitro ADME.
Description: as §3

A further series has as its target CYP2D6 (Homo sapiens (Human), UniProt P10635). Put plainly: CYP enzyme inhibition assay. The class given is in vitro ADME.
Description: as §3

The next series concerns the target CYP3A4-M (Homo sapiens (Human), UniProt P08684). The experiment in a line: CYP enzyme inhibition assay. It counts as in vitro ADME.
Description: as §3

In the next series the target is CYP1A2 (Homo sapiens (Human), UniProt P05177). The class given is in vitro ADME.
CYP1A2, sequence (P05177 whole entry): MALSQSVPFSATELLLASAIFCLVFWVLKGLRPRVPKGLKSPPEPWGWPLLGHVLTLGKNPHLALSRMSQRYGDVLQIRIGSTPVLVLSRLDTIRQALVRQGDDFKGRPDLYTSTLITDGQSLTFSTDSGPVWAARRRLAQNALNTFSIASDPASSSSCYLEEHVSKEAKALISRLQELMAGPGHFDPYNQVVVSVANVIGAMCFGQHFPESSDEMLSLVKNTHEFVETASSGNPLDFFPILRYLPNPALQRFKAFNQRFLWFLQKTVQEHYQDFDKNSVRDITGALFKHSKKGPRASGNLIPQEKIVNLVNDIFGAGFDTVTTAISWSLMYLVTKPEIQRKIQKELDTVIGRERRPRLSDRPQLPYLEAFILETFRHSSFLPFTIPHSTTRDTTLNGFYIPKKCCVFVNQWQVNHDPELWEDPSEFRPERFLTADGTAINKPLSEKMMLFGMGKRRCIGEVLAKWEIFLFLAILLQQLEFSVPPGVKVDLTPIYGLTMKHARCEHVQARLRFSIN
Description: as §3

The test system of a further series is erythropoietin. Put plainly: Expression of erythropoietin in vivo (plasma EPO ELISA after single oral dose).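 For all read-outs here: male C57 mice given compound by mouth, five animals per treatment group, with EPO in plasma measured by ELISA.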 To be noted: once; for EPO OD value: plasma 6 hours after administration; for Promotion of expression of erythropoietin in vivo: at 10 mg/kg. In general terms: ELISA stands for enzyme-linked immunosorbent assay.
[2] abbreviates: 2 h, compound at 30 μM, 10 μM and 3 μM.

Molecules are shown by their SMILES.

hERG channels, sequence (Q12809 whole entry, the tested form may be a part): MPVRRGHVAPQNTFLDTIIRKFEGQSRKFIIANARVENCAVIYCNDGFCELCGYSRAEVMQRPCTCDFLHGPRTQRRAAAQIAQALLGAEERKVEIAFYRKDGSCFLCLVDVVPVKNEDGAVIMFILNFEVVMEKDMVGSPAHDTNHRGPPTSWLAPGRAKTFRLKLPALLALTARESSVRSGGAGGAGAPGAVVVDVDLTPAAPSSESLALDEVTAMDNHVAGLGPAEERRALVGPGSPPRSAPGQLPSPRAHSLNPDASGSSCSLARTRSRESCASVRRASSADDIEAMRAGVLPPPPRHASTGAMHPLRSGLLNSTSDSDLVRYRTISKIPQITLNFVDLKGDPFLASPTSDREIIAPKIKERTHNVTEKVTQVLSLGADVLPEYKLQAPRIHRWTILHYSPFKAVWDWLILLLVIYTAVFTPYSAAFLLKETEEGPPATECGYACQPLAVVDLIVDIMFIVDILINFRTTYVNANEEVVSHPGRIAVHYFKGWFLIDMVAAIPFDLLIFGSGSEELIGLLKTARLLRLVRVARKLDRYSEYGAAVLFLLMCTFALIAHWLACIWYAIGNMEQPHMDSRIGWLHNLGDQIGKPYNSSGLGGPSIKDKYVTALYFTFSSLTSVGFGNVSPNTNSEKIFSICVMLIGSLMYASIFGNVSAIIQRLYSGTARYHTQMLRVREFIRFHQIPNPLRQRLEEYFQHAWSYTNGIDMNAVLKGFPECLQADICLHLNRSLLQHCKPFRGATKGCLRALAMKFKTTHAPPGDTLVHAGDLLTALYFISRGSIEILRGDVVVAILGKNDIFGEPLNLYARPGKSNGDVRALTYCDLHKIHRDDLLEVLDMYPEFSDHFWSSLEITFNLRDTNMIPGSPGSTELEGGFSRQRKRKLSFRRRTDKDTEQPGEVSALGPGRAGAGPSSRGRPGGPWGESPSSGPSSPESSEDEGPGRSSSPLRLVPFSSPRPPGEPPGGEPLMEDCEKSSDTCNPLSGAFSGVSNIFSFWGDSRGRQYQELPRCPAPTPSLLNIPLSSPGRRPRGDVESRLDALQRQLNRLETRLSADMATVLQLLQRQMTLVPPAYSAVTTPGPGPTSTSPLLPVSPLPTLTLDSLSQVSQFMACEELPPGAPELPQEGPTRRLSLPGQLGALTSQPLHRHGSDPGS
CYP2D6, sequence (P10635 whole entry): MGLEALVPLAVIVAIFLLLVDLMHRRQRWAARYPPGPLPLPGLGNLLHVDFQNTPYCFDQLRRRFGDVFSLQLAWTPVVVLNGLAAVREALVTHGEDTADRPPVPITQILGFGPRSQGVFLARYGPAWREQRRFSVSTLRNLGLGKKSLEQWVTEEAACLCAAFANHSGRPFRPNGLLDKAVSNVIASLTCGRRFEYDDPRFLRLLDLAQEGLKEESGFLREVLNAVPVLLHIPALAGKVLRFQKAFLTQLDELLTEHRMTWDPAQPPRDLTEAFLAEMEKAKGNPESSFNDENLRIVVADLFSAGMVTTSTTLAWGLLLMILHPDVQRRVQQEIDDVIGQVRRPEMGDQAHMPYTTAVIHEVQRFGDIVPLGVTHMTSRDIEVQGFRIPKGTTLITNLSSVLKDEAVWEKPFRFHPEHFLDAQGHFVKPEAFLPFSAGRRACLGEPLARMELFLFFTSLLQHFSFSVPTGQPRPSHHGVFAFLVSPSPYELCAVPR
PHD3, sequence (Q9H6Z9 whole entry): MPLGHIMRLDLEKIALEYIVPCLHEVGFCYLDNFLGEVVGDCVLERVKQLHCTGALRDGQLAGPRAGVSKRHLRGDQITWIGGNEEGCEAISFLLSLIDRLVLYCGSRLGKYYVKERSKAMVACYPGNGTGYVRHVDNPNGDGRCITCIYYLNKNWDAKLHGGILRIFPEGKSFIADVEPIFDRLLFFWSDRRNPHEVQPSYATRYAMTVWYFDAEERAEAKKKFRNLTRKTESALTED
CYP3A4-M, sequence (P08684 whole entry): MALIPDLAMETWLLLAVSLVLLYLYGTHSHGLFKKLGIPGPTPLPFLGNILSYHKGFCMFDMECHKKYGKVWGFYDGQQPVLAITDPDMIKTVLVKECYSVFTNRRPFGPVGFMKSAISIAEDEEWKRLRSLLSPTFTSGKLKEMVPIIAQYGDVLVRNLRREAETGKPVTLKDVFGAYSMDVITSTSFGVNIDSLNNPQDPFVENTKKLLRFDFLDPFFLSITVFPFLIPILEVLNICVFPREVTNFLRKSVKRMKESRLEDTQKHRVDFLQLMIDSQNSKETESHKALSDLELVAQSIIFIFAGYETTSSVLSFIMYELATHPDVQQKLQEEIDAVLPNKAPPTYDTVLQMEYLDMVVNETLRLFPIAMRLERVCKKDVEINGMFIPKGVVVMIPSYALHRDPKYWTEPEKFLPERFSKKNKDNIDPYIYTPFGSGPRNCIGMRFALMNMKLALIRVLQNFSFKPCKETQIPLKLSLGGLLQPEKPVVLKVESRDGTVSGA
CYP2C9, sequence (P11712 whole entry): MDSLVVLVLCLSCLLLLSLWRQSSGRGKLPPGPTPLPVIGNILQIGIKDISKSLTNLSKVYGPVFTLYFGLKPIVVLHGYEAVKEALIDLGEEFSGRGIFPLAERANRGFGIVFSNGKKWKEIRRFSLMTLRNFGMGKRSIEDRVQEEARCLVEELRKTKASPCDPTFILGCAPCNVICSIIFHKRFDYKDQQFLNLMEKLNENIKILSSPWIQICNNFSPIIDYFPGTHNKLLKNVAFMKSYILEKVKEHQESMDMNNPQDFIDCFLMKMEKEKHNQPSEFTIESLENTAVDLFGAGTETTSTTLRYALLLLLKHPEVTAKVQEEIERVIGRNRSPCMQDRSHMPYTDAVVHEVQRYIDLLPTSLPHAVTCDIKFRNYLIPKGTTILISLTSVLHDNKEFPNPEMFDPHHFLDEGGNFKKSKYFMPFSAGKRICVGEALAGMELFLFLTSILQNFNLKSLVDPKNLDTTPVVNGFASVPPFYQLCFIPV
PHD1, sequence (Q96KS0 whole entry): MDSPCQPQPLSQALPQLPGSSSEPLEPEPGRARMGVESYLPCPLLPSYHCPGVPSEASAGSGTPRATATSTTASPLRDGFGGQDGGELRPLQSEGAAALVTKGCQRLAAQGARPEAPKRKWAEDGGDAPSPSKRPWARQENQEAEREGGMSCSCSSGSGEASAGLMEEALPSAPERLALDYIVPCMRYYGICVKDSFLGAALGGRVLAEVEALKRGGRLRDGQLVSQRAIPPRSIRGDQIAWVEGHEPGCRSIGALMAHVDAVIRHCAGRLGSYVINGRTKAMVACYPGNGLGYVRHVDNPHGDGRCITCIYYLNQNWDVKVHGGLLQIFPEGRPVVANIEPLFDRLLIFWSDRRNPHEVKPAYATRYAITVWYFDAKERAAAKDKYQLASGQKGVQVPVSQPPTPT

The term IC50 denotes the concentration needed to halve the response being measured. Take `O=C(O)CNC(=O)c1nc(Br)c2cc(Oc3ccccc3)ccc2c1O` [Comparative Example 3, reference compound]: the results for the IC50 on PHD1, at PHD3 and against PHD2 were 452 nM, 544 nM and 951 nM, respectively.
Turning to `O=C(O)CNC(=O)c1nc(Cl)c2nc(Oc3ccccc3Cl)ccc2c1O` [Link-124, 2-(2-(2-chlorophenoxy)-5-hydroxy-8-chloro-1,7-naphthyridine-6-formamido) Acetic Acid], in the series on HIF-2α, the “HIF-2α protein expression compared with blank control” value is listed as “higher than that of the blank control”. Further, the fold induction at 30 µM was in the range of 4.5 to 8.5 in the series with HIF-2α (Homo sapiens, 2 h, compound at 30 μM, 10 μM and 3 μM, read-out: HIF-2α level of the compound of the present disclosure/HIF-2α level of blank control); 4.5 to 8.5 in the series with HIF-1α (Homo sapiens, 2 h, compound at 30 μM, 10 μM and 3 μM, read-out: HIF-1α level of the compound of the present disclosure/HIF-1α level of blank control). Further, in the series on reticulocytes, the “Reticulocytes (RETIC), average” value is 6.80. For the same compound, the “HIF-1α protein expression compared with blank control” value in the series on HIF-1α is listed as “higher than that of the blank control”. The “EPO-enhancing effect compared with positive control drug FG4592” value in series [1] is “higher than that of the positive control drug FG4592”. Also, the IC50 is over 30 µM against hERG channels; over 50 µM on CYP2C19; over 50 µM against CYP2C9; over 50 µM on CYP2D6; over 50 µM against CYP3A4-M; over 50 µM against CYP1A2. Moreover, the “Inhibitory effect on hERG current at the highest test concentration” value on hERG channels (human, 30 μM) is given as “far from the IC50 value”. The “EPO OD value” in the series on erythropoietin (10 mg/kg) and in the series with erythropoietin (50 mg/kg) was “D (D represents EPO OD value>3)” in each case. Further, in the series on erythropoietin, the “Promotion of expression of erythropoietin in vivo” value is listed as “significantly promote the expression of erythropoietin”.
Take `O=C(O)CNC(=O)c1nc(Cl)c2nc(Oc3ccc(F)cc3)ccc2c1O` [Link-130, 2-(2-(4-fluorophenoxy)-5-hydroxy-8-chloro-1,7-naphthyridine-6-formamido) Acetic Acid]: in the series with HIF-2α, the “HIF-2α protein expression compared with blank control” value is “higher than that of the blank control”. Besides, the “HIF-2α level of the compound of the present disclosure/HIF-2α level of blank control” value in the series on HIF-2α (setting [2]) was “B (B represents 4.5 < protein ratio < 8.5)”. In addition, in the series with HIF-1α, the “HIF-1α protein expression compared with blank control” value is given as “higher than that of the blank control”. For the same compound, in the series on HIF-1α (setting [2]), the “HIF-1α level of the compound of the present disclosure/HIF-1α level of blank control” value was “B (B represents 4.5 < protein ratio < 8.5)”. Further, in [1], the “EPO-enhancing effect compared with positive control drug FG4592” value is reported as “higher than that of the positive control drug FG4592”. For the same compound, in [1] (24 h, compound at 100 μM and 10 μM, supernatant ELISA), the “EPO level of the compound of the present disclosure/EPO level of FG4592” value is reported as “C (C represents EPO ratio ≥ 1.3)”. Also, the “EPO OD value” with erythropoietin (10 mg/kg) is on record as “C (C represents 2<EPO OD value<3)”; in the series on erythropoietin (50 mg/kg), “D (D represents EPO OD value>3)”. For the same compound, in the series on erythropoietin, the “Promotion of expression of erythropoietin in vivo” value was “significantly promote the expression of erythropoietin”.

Values taken from patent publication US11981669B2, “1,7-naphthyridine derivative and preparation method and use therefor” (CSPC ZHONGQI PHARMACEUTICAL TECHNOLOGY (SHIJIAZHUANG) CO., …, priority 2018, dated 2024).
